In publication PMC4818591 (ChemMedChem, 2015):
Where two headings read alike, the source gives them in different places.

Experiments:
Format in all cases: biochemical
[1] = target: HDAC2 (Homo sapiens, UniProt Q92769); test: HDAC2 isozyme inhibition; conditions: for SI HDAC2/6: selectivity index
[2] = target: HDAC1 (Homo sapiens, UniProt Q13547); test: HDAC1 isozyme inhibition; conditions: for SI HDAC1/6: selectivity index
[3] = target: HDAC3 (Homo sapiens, UniProt O15379); test: HDAC3 isozyme inhibition; conditions: for SI HDAC3/6: selectivity index
[4] = target: T1, HDAC10 (Homo sapiens, UniProt Q969S8); test: HDAC10 isozyme inhibition; conditions: for SI HDAC10/6: selectivity index
T1 sequence (Q969S8 1-669): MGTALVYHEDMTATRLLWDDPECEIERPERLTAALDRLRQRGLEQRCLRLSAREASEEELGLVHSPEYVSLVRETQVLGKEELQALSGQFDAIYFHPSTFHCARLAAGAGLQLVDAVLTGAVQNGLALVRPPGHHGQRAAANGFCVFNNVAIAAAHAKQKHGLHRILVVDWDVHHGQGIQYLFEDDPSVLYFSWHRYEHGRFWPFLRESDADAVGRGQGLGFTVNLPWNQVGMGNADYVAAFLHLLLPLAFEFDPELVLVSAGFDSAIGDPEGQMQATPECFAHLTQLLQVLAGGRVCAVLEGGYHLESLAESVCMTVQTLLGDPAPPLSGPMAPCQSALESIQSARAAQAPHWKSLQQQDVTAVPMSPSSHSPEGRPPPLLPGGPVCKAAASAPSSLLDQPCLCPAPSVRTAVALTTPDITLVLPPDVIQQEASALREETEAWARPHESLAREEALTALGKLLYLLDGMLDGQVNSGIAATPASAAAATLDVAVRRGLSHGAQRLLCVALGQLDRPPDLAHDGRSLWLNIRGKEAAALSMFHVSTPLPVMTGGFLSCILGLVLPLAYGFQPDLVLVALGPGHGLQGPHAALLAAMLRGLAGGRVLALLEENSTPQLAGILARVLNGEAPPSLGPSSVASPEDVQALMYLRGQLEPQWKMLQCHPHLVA

[5] = target: T2, HDAC6 (Homo sapiens, UniProt Q9UBN7); test: HDAC6 isozyme inhibition; conditions: for selectivity over HDAC1 and HDAC3: HDAC6 versus HDAC1 and HDAC3; for selectivity over HDAC2 and HDAC10: HDAC6 versus HDAC2 and HDAC10
T2 sequence (Q9UBN7 1-1215): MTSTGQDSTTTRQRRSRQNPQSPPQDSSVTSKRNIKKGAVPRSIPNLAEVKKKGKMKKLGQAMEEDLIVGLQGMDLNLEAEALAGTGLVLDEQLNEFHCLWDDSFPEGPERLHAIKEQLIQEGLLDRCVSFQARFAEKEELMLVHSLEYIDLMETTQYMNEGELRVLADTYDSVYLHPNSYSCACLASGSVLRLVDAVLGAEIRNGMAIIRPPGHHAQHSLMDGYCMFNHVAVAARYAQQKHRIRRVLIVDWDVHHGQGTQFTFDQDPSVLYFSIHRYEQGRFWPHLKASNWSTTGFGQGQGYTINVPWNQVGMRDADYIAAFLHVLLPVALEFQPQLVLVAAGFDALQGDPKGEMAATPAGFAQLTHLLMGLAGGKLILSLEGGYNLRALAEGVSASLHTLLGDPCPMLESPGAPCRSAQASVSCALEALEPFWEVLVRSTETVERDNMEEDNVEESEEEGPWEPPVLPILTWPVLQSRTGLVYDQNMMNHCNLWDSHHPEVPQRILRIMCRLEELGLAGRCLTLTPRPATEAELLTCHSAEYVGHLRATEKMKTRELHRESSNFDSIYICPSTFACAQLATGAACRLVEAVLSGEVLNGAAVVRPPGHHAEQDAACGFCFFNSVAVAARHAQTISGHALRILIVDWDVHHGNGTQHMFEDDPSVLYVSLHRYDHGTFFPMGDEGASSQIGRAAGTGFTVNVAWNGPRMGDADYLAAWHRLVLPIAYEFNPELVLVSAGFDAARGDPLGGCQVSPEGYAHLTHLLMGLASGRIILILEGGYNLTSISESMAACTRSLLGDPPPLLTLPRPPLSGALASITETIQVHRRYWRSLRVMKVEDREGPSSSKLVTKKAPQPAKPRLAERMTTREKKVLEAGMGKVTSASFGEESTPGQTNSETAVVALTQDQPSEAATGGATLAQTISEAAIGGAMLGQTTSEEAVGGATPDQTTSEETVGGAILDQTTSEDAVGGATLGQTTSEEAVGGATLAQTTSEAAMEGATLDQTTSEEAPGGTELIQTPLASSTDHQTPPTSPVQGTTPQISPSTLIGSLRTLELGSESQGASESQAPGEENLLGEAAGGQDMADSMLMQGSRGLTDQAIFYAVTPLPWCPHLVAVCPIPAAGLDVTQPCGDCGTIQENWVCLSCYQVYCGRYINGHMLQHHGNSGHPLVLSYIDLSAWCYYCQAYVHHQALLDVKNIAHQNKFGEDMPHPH

[6] = read-out: HDAC Isoform, IC50, Class II, 10, singlet, 10-dose IC50 mode, 3-fold serial dilution starting at 30 μM, >50000 = no inhibition at 50 μM
[7] = read-out: HDAC Isoform, IC50, Class I, 2, singlet, 10-dose IC50 mode, 3-fold serial dilution starting at 30 μM, >50000 = no inhibition at 50 μM
[8] = read-out: HDAC Isoform, IC50, Class I, 1, singlet, 10-dose IC50 mode, 3-fold serial dilution starting at 30 μM, >50000 = no inhibition at 50 μM
[9] = read-out: HDAC Isoform, IC50, Class I, 3, singlet, 10-dose IC50 mode, 3-fold serial dilution starting at 30 μM, >50000 = no inhibition at 50 μM
[10] = read-out: HDAC Isoform, IC50, Class II, 6, duplicate, 10-dose IC50 mode, 3-fold serial dilution starting at 30 μM, average ± standard deviation

Chain of HDAC1 (Q13547 whole entry): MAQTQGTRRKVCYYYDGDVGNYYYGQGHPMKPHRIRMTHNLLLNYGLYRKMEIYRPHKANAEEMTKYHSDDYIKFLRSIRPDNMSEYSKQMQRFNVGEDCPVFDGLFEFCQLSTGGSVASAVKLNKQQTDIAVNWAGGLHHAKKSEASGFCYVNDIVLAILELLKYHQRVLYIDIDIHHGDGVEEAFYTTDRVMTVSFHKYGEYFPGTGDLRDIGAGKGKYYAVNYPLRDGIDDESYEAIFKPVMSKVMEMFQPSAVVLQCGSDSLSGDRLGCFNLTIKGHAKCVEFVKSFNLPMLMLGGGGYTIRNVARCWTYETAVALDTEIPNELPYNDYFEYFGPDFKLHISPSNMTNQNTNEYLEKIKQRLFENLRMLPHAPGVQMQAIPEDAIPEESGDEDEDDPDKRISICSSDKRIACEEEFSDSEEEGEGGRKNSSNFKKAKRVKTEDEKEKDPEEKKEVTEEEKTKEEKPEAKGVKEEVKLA
Chain of HDAC2 (Q92769 whole entry): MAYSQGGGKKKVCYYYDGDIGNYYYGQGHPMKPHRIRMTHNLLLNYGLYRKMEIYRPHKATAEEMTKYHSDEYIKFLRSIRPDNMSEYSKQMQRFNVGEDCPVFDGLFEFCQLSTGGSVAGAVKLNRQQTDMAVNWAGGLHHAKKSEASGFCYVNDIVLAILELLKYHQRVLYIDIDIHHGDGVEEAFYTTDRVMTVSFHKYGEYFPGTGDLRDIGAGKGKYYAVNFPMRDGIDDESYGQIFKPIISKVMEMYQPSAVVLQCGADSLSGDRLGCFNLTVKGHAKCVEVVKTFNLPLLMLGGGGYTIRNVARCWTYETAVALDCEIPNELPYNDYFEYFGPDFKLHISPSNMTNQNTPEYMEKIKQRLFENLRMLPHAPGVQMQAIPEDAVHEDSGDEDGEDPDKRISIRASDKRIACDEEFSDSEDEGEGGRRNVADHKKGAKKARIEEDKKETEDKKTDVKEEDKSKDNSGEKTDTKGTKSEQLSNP
Chain of HDAC3 (O15379 whole entry): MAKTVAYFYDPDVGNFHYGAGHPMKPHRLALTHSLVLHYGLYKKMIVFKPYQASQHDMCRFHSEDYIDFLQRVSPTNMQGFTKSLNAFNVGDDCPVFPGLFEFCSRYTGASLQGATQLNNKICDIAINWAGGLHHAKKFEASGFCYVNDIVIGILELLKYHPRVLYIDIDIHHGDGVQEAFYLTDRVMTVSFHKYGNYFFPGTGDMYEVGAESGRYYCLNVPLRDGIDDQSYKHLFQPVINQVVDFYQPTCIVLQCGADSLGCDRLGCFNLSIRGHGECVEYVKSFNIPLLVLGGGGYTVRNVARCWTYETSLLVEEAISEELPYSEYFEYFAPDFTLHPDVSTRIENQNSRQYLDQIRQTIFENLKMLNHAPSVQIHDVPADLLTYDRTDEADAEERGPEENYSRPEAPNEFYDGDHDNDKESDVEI
Chain of HDAC3 (Q9Y618 395-489 partner limits assumed): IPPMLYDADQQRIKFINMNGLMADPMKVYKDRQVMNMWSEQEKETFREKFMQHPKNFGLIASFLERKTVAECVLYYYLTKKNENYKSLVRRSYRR

| SI HDAC2/6 [1] | SI HDAC1/6 [2] | SI HDAC3/6 [3] | SI HDAC10/6 [4] | SMILES | further results |
| --- | --- | --- | --- | --- | --- |
| 28 | 10 | 11 |  | CC(C)(C)OC(=O)Nc1ccc(-c2csc(NC(=O)CCCc3cc(C(=O)NO)no3)n2)cc1 [Compound 3, N-[4-[2-[4-[3-(N-Hydroxycarbamoyl)isoxazol-5-yl]butyrylamino]thiazol-4-yl]phenyl]carbamic Acid tert-Butyl Ester] |  |
| 333 | 80 | 32 | 82 | CCOC(=O)Nc1cccc(-c2csc(NC(=O)CCc3cc(C(=O)NO)no3)n2)c1 [Compound 5, N-[3-[2-[3-[3-(N-Hydroxycarbamoyl)isoxazol-5-yl]propionylamino]thiazol-4-yl]phenyl]carbamic Acid Ethyl Ester] |  |
|  | 2817 | 3800 |  | CC(C)(C)OC(=O)Nc1ccc(-c2cc(C(=O)NCCc3cc(C(=O)NO)no3)no2)cc1 [Compound 6, N-[4-[3-[N-[2-[3-(N-Hydroxycarbamoyl)isoxazol-5-yl]ethyl]carbamoyl]isoxazol-5-yl]phenyl]carbamic Acid tert-Butyl Ester] | IC50 [4, 6]: > 50 µM; IC50 [1, 7]: > 50 µM; selectivity for HDAC6 over all other isoforms ([5]; Table S1 in the supporting information (not available)): highly selective |
|  |  |  |  | CC(C)(C)OC(=O)Nc1cccc(-c2cc(C(=O)NCCc3cc(C(=O)NO)no3)no2)c1 [Compound 7] | IC50 [4, 6]: > 50 µM; IC50 [1, 7]: > 50 µM; IC50 [2, 8]: > 50 µM; IC50 [3, 9]: > 50 µM; IC50 [5, 10]: 0.0077 ± 0.0008 µM |
| 409 | 39 | 51 | 123 | CCOC(=O)Nc1ccc(-c2cc(C(=O)NCCc3cc(C(=O)NO)no3)no2)cc1 [Compound 8, N-[4-[3-[N-[2-[3-(N-Hydroxycarbamoyl)isoxazol-5-yl]ethyl]carbamoyl]isoxazol-5-yl]phenyl]carbamic Acid Ethyl Ester] |  |
| 140 | 398 | 105 | 315 | Nc1cccc(-c2cc(C(=O)NCCc3cc(C(=O)NO)no3)no2)c1 [Compound 9, 5-(3-Aminophenyl)-N-[2-[3-(N-hydroxycarbamoyl)isoxazol-5-yl]ethyl]isoxazole-3-carboxamide] |  |
|  |  |  | 1910 | CC(C)(C)C(=O)Nc1cccc(-c2cc(C(=O)NCCc3cc(C(=O)NO)no3)no2)c1 [Compound 10, 5-[2-[[5-[3-[(2,2-Dimethylpropionyl)amino]phenyl]isoxazole-3-carbonyl]amino]ethyl]isoxazole-3-carbohydroxyamic Acid] | IC50 [4, 6]: 40.1 µM; IC50 [1, 7]: > 50 µM; IC50 [2, 8]: > 50 µM; IC50 [3, 9]: > 50 µM; selectivity index (SI) ([5]; HDAC6 over the other isoforms tested): at least 1900; IC50 [5, 10]: 0.0212 ± 0.0009 µM |
|  |  |  |  | O=C(NO)c1cc(CCNC(=O)c2cc(-c3cccc(NC(=O)C4CCCCC4)c3)on2)on1 [Compound 11, 5-[3-[(Cyclohexanecarbonyl)amino]phenyl]-N-[2-[3-(N-hydroxycarbamoyl)isoxazol-5-yl]ethyl]isoxazole-3-carboxamide] | IC50 [4]: > 50 µM; IC50 [1]: > 50 µM; IC50 [2]: > 50 µM; IC50 [3]: > 50 µM |
| 2360 | 666 | 1600 | 1050 | O=C(Nc1cccc(-c2cc(C(=O)NCCc3cc(C(=O)NO)no3)no2)c1)c1ccccc1 [Compound 12, 5-[3-(Benzoylamino)phenyl]-N-[2-[3-(N-hydroxycarbamoyl)isoxazol-5-yl]ethyl]isoxazole-3-carboxamide] |  |
| 5760 | 1320 | 409 | 9580 | CC(C)(C)OC(=O)Nc1ccc(-c2cc(C(=O)NCc3ccc(C(=O)NO)cc3)no2)cc1 [Compound 13, N-[4-[3-[N-[4-(N-Hydroxycarbamoyl)benzyl]carbamoyl]isoxazol-5-yl]phenyl]carbamic Acid tert-Butyl Ester] | selectivity over HDAC1 and HDAC3 [5]: at least 400 fold; selectivity over HDAC2 and HDAC10 [5]: more than 3 orders of magnitude |
| 2160 | 694 | 1230 | 4270 | CC(C)(C)OC(=O)Nc1cccc(-c2cc(C(=O)NCc3ccc(C(=O)NO)cc3)no2)c1 [Compound 14, N-[3-[3-[N-[4-(N-Hydroxycarbamoyl)benzyl]carbamoyl]isoxazol-5-yl]phenyl]carbamic Acid tert-Butyl Ester] | selectivity over HDAC1 and HDAC3 [5]: at least 400 fold; selectivity over HDAC2 and HDAC10 [5]: more than 3 orders of magnitude |
| 461 | 65 | 40 | 38 | O=C(NO)c1ccc(CNC(=O)c2cc(-c3ccc(NC(=O)C4CCCCC4)cc3)on2)cc1 [Compound 15, 5-[4-[(Cyclohexanecarbonyl)amino]phenyl]-N-[4-(N-hydroxycarbamoyl)benzyl]isoxazole-3-carboxamide] |  |
| 1650 | 82 | 257 | 73 | O=C(NO)c1ccc(CNC(=O)c2cc(-c3cccc(NC(=O)C4CCCCC4)c3)on2)cc1 [Compound 16, 5-[3-[(Cyclohexanecarbonyl)amino]phenyl]-N-[4-(N-hydroxycarbamoyl)benzyl]isoxazole-3-carboxamide] |  |
|  | 26 | 29 |  | O=C(NO)c1cc(Cn2c3ccccc3c3ccccc32)on1 [Compound 17, 5-(Carbazol-9-ylmethyl)isoxazole-3-carbohydroxamic Acid] | IC50 [4]: > 50 µM; IC50 [1]: > 50 µM; IC50 [2]: 38.7 µM; IC50 [3]: 44 µM; IC50 [5]: 1.51 ± 0.065 µM |
| 2280 | 825 | 798 | 37000 | O=C(NO)c1ccc(CNC(=O)c2cc(Cn3c4ccccc4c4ccccc43)on2)cc1 [Compound 18, 5-(9H-Carbazol-9-ylmethyl)-N-[4-(hydroxycarbamoyl)benzyl]isoxazole-3-carboxamide] |  |
